Assay results: patent EP0431741A2, “Substituted pyrimidineamino compounds” (Beecham Group p.l.c., priority 1989, dated 1991)

Key:
[1] = tested on: Spontaneously hypertensive rats; assay: Antihypertensive activity: systolic blood pressure by tail cuff method; format: in vivo; conditions: for b.p. lower/dose: systolic blood pressure, spontaneously hypertensive rats; for active in test 1. (Antihypertensive Activity): result in words, no dose given
Protocol: Systolic blood pressures were recorded by a modification of the tail cuff method described by I.M. Claxton, M.G. Palfreyman, R.H. Poyser, R.L. Whiting, European Journal of Pharmacology, 37, 179 (1976). A W+W BP recorder, model 8005 was used to display pulses. Prior to all measurements rats were placed in a heated environment (33.5 ± 0.5 °C) before transfer to a restraining cage. Each determination of blood pressure was the mean of at least 5 readings. Spontaneously hypertensive rats (ages 12-18 weeks) with systolic blood pressures >180 mmHg were considered hypertensive.

[2] = tested on: trachea; assay: Bronchodilator activity: relaxation of isolated tracheal spirals, relative to isoprenaline maximum; format: cell-based, guinea pigs; conditions: result in words; no value given
Protocol: Male guinea pigs (300-600g) were stunned by a blow to the head and bled from the carotid artery. The trachea was exposed, dissected free of connective tissue, and transferred to oxygenated Krebs solution at 37 °C. Next, spirals (2 per trachea) were prepared by cutting the whole trachea spirally along its longitudinal axis and then dividing this spiral lengthwise. Each preparation was mounted, using silk thread, in a 10ml organ bath filled with Krebs solution at 37 °C and bubbled with 5% CO₂ with O₂. The resting tension of the preparations was set at 2g and changes in muscle tension were monitored isometrically by means of a UFI (2oz) force and displacement transducer (Ormed Ltd) connected to a Linseis pen recorder. All preparations were allowed to equilibrate for 60 minutes. During this equilibration period the preparations were washed by upward displacement at 15 minute intervals and, if necessary, the resting tension was readjusted to 2g using a mechanical micromanipulator system.
Once a steady resting tension had been obtained, the preparations were dosed simultaneously with the test compound (10⁻⁸-2x10⁻⁵M), and finally a maximum relaxation achieved by addition of 10⁻³M isoprenaline. The fall in tension evoked by the test compound was expressed as a percentage of the total relaxation evoked in the presence of 10⁻³ isoprenaline. […]

| Structure (SMILES) | b.p. lower/dose ([1]; dose 0.15mgkg⁻¹) | b.p. lower/dose ([1]; dose 0.3mgkg⁻¹) | active in test 2. (Bronchodilator Activity) [2] | active in test 1. (Antihypertensive Activity) [1] |
| --- | --- | --- | --- | --- |
| CC1(C)Oc2ccc(C#N)cc2[C@@H](Nc2cc(Cl)ncn2)[C@@H]1O (racemic) [El, Trans-6-cyano-4-[(6-chloropyrimidin-4-yl)amino]-3,4-dihydro-2,2-dimethyl-2H-1-benzopyran-3-ol] | 38%/0.15mgkg⁻¹ | 36%/0.3mgkg⁻¹ | – | – |
| CNc1cc(N[C@@H]2c3cc(C#N)ccc3OC(C)(C)[C@H]2O)ncn1 (racemic) [Example 2] | – | – | active | active |
| CC1(C)Oc2ccc(C#N)cc2[C@@H](Nc2cc(N)ncn2)[C@@H]1O (racemic) [Example 3] | – | – | active | active |
